From ChEMBL document CHEMBL1201862, “PubChem BioAssay data set” (2004)
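48-hour exposure; five concentrations; linearly interpolated endpoints. At the GI50, growth is halved.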 The source made the active and inactive calls. Rule as the data show it: active = GI50 up to about 1.1 µM and inactive = higher.

What was measured:
Assay in all cases: NCI tumour cell line growth inhibition, 48 h
DMS-114 = test system: DMS-114
DMS-273 = test system: DMS-273
HOP-18 = test system: HOP-18
M19-MEL = test system: M19-MEL
MDA-N = test system: MDA-N
SNB-78 = test system: SNB-78
T47D = test system: T47D
XF498 = test system: XF498
RXF 631 = test system: RXF 631

Measured: GI50

CCC1(c2ccc(N)cc2)CCC(=O)NC1=O (configuration not stated) [AMINOGLUTETHIMIDE]
inactive: DMS-114 1530 µM | DMS-273 2560 µM | HOP-18 3120 µM | M19-MEL 2210 µM | MDA-N 3250 µM | SNB-78 2170 µM | T47D 2070 µM | XF498 1550 µM

CCCCCCCCCCCC(=O)OC[C@H](C[As](=O)(O)O)OC(=O)CCCCCCCCCCC
inactive: DMS-114 1.95 µM | DMS-273 3.98 µM | HOP-18 7.29 µM | M19-MEL 8.18 µM | MDA-N 4.34 µM | SNB-78 2.94 µM | T47D 15.3 µM | XF498 10.1 µM

O=C(c1ccccc1)[C@H]1Nc2ccc(Cl)cc2[C@H]2OCCC[C@@H]12
inactive: DMS-114 14.2 µM | DMS-273 19.3 µM | HOP-18 18.5 µM | M19-MEL 23 µM | RXF 631 17.9 µM | SNB-78 24.1 µM | XF498 19.5 µM

CCOC(=O)CC(=O)ON(C)C(=O)Cc1ccccc1
inactive: DMS-114 > 100 µM | M19-MEL > 100 µM | RXF 631 > 100 µM | SNB-78 > 100 µM

COc1ccc(S(=O)(=O)N/N=C(\C)CN2C(=O)c3ccccc3C2=O)cc1
inactive: DMS-114 > 100 µM | DMS-273 > 100 µM | HOP-18 > 100 µM | M19-MEL > 100 µM | RXF 631 > 100 µM | SNB-78 > 100 µM

CCOC(=O)[C@H]1Nc2ccc(Cl)cc2[C@H]2OCC[C@@H]12
inactive: DMS-114 > 100 µM | DMS-273 > 100 µM | HOP-18 > 100 µM | M19-MEL > 100 µM | RXF 631 > 100 µM | SNB-78 > 100 µM | XF498 > 100 µM

O=C(Nc1ccccc1)C(=O)C(C(=O)c1ccccc1F)C1OC(=O)c2ccccc21 (configuration not stated)
inactive: DMS-114 20.9 µM | DMS-273 31.3 µM | M19-MEL 30.1 µM | RXF 631 31.2 µM | SNB-78 > 100 µM | XF498 20.7 µM

CN1OC(=O)N(C)C1c1ccccc1 (configuration not stated)
inactive: DMS-114 > 100 µM | DMS-273 > 100 µM | HOP-18 > 100 µM | M19-MEL > 100 µM | SNB-78 > 100 µM | XF498 > 100 µM

Cc1ccc(C(=O)CC2=Nc3nnc(CCCCCCCc4nnc5n4C(=O)C(CC(=O)c4ccc(C)cc4)=N5)n3C2=O)cc1
inactive: DMS-114 > 100 µM | HOP-18 > 100 µM | M19-MEL > 100 µM | RXF 631 > 100 µM | XF498 > 100 µM

Cc1cc(N(CCC#N)CCC#N)ccc1/N=N/c1cccc(C(=O)O)c1
inactive: DMS-114 > 100 µM | DMS-273 > 100 µM | HOP-18 > 100 µM | M19-MEL > 100 µM | RXF 631 > 100 µM | SNB-78 > 100 µM | XF498 52.4 µM

COC(=O)C(Cc1nc2ccccc2nc1O)C(=O)C(=O)Nc1ccc(F)cc1 (configuration not stated)
inactive: DMS-114 22.9 µM | DMS-273 48.1 µM | HOP-18 > 100 µM | M19-MEL 46.7 µM | RXF 631 32.7 µM | XF498 54 µM

C[P+](C)(C)c1ccccc1
inactive: DMS-114 > 100 µM | DMS-273 > 100 µM | HOP-18 > 100 µM | M19-MEL > 100 µM | RXF 631 > 100 µM | XF498 > 100 µM

C=C1C(=O)O[C@@H]2C[C@]3(C)[C@@H](C[C@H]12)[C@](C)(O)CC[C@@H]3O
inactive: DMS-114 39.2 µM | DMS-273 52.8 µM | M19-MEL 43.9 µM | RXF 631 87.5 µM | SNB-78 47.8 µM | XF498 36.5 µM
